# System: MDA-231 cancer cells
# Assay: Inhibition of proliferation assay, cell confluence (IncuCyte live cell imaging)
# Format: cell-based
# Details: MDA-231 cells, concentration 10 uM; relative confluence normalised to time zero, images every 3 h over 4-5 d
# From the text: Inhibition of Proliferation Assay Cell Confluence The confluence value is a surrogate for cell proliferation and growth. The value is expressed as a percent confluence, which represents the fraction of culture dish-surface that is occupied by cells. As the number of cells in the dish increases over time due to proliferation, so will their coverage of that surface increase. Expansion of the cell population on the cell culture-dish surface and confluence have mostly a linear relationship until the cells on the plate surface begin to reach saturation or maximum density. Confluence is determined based on image analysis. Image based software can identify objects in the image field base on changes to pixel density in a grey scale image. The software can then assign a mask to those pixels within the object. Objects can be ‘gated’ out based on size and shape. To determine cell confluence, images of cells are first masked as objects. The surface area of the image that is masked is measured and compared to the total surface area of the culture dish surface to obtain a percent confluence. MDA-231 cancer cells were obtained from ATCC. Cells were cultured in Dulbecco's Modified Eagle Medium (DMEM) supplemented with 10% Fetal Bovine Serum (FBS), 2 mM Glutamax, 1 mM Non Essential Amino Acid (NEAA) solution and 1 mM sodium pyruvate. Compounds were dissolved in DMSO at 10 mM and diluted in cellular medium and tested at 10 μM (micromolar). Final DMSO concentrations were <0.1%. Images were acquired with an IncuCyte Live Cell Imaging microscopy (Essen Bioscience) at every 3 h under cell culture conditions with 10× objective over 4-5 d. Cell confluence was calculated from one field of view per well using the IncuCyte in-built algorithm. Relative confluence values were obtained by normalising each value to the time zero value in each sample.
row,SMILES,% Confluence [%]
1,"CC[C@H]1OC(=O)[C@H](C)[C@@H](O[C@H]2C[C@@](C)(OC)[C@@H](O)[C@H](C)O2)[C@H](C)[C@@H](O[C@@H]2O[C@H](C)C[C@H](N(C)C)[C@H]2O)[C@](C)(O)C[C@@H](C)CN(C(=O)CCCCCCCCCCCCC[P+](c2ccccc2)(c2ccccc2)c2ccccc2)[C@H](C)[C@@H](O)[C@]1(C)O [Example 1, {14-[(2R,3S,4R,5R,8R,10R,11R,12S,13S,14R)-11-{[(2S,3R,4S,6R)-4-(dimethylamino)-3-hydroxy-6-methyloxan-2-yl]oxy}-2-ethyl-3,4,10-trihydroxy-13-{[(2R,4R,5S,6S)-5-hydroxy-4-methoxy-4,6-dimethyloxan-2-yl]oxy}-3,5,8,10,12,14-hexamethyl-15-oxo-1-oxa-6-azacyclopentadecan-6-yl]-14-oxotetradecyl}triphenylphosphonium hexafluorophosphate(V)]",4.2
2,"CC[C@H]1OC(=O)[C@H](C)[C@@H](O[C@H]2C[C@@](C)(OC)[C@@H](O)[C@H](C)O2)[C@H](C)[C@@H](O[C@@H]2O[C@H](C)C[C@H](N(C)C)[C@H]2O)[C@](C)(O)C[C@@H](C)CN(C(=O)CCCCCCCCC[P+](c2ccccc2)(c2ccccc2)c2ccccc2)[C@H](C)[C@@H](O)[C@]1(C)O [Example 2, {10-[(2R,3S,4R,5R,8R,10R,11R,12S,13S,14R)-11-{[(2S,3R,4S,6R)-4-(dimethylamino)-3-hydroxy-6-methyloxan-2-yl]oxy}-2-ethyl-3,4,10-trihydroxy-13-{[(2R,4R,5S,6S)-5-hydroxy-4-methoxy-4,6-dimethyloxan-2-yl]oxy}-3,5,8,10,12,14-hexamethyl-15-oxo-1-oxa-6-azacyclopentadecan-6-yl]-10-oxodecyl}triphenylphosphonium hexafluorophosphate(V)]",13.4
3,"CC[C@H]1OC(=O)[C@H](C)[C@@H](O[C@H]2C[C@@](C)(OC)[C@@H](O)[C@H](C)O2)[C@H](C)[C@@H](O[C@@H]2O[C@H](C)C[C@H](N(C)C)[C@H]2O)[C@](C)(O)C[C@@H](C)CN(C(=O)CCCCCCCC[P+](c2ccccc2)(c2ccccc2)c2ccccc2)[C@H](C)[C@@H](O)[C@]1(C)O [Example 3, {9-[(2R,3S,4R,5R,8R,10R,11R,12S,13S,14R)-11-{[(2S,3R,4S,6R)-4-(dimethylamino)-3-hydroxy-6-methyloxan-2-yl]oxy}-2-ethyl-3,4,10-trihydroxy-13-{[(2R,4R,5S,6S)-5-hydroxy-4-methoxy-4,6-dimethyloxan-2-yl]oxy}-3,5,8,10,12,14-hexamethyl-15-oxo-1-oxa-6-azacyclopentadecan-6-yl]-9-oxononyl}triphenylphosphonium hexafluorophosphate(V)]",98.4
4,"CC[C@H]1OC(=O)[C@H](C)[C@@H](O[C@H]2C[C@@](C)(OC)[C@@H](O)[C@H](C)O2)[C@H](C)[C@@H](O[C@@H]2O[C@H](C)C[C@H](N(C)C)[C@H]2O)[C@](C)(O)C[C@@H](C)CN(C(=O)CCCCCC[P+](c2ccccc2)(c2ccccc2)c2ccccc2)[C@H](C)[C@@H](O)[C@]1(C)O [Example 4, {7-[(2R,3S,4R,5R,8R,10R,11R,12S,13S,14R)-11-{[(2S,3R,4S,6R)-4-(dimethylamino)-3-hydroxy-6-methyloxan-2-yl]oxy}-2-ethyl-3,4,10-trihydroxy-13-{[(2R,4R,5S,6S)-5-hydroxy-4-methoxy-4,6-dimethyloxan-2-yl]oxy}-3,5,8,10,12,14-hexamethyl-15-oxo-1-oxa-6-azacyclopentadecan-6-yl]-7-oxoheptyl}triphenylphosphonium hexafluorophosphate(V)]",89.9
5,"CC[C@H]1OC(=O)[C@H](C)[C@@H](O[C@H]2C[C@@](C)(OC)[C@@H](O)[C@H](C)O2)[C@H](C)[C@@H](O[C@@H]2O[C@H](C)C[C@H](N(C)C)[C@H]2O)[C@](C)(O)C[C@@H](C)CN(C(=O)CCCCCCCCCCC[P+](c2ccccc2)(c2ccccc2)c2ccccc2)[C@H](C)[C@@H](O)[C@]1(C)O [Example 5, {12-[(2R,3S,4R,5R,8R,10R,11R,12S,13S,14R)-11-{[(2S,3R,4S,6R)-4-(dimethylamino)-3-hydroxy-6-methyloxan-2-yl]oxy}-2-ethyl-3,4,10-trihydroxy-13-{[(2R,4R,5S,6S)-5-hydroxy-4-methoxy-4,6-dimethyloxan-2-yl]oxy}-3,5,8,10,12,14-hexamethyl-15-oxo-1-oxa-6-azacyclopentadecan-6-yl]-12-oxododecyl}triphenylphosphonium hexafluorophosphate(V)]",5
6,"CC[C@H]1OC(=O)[C@H](C)[C@@H](O[C@H]2C[C@@](C)(OC)[C@@H](O)[C@H](C)O2)[C@H](C)[C@@H](O[C@@H]2O[C@H](C)C[C@H](N(C)C)[C@H]2O)[C@](C)(O)C[C@@H](C)CN(C(=O)CCCCC[PH](c2ccccc2)(c2ccccc2)c2ccccc2)[C@H](C)[C@@H](O)[C@]1(C)O [Example 6, {6-[(2R,3S,4R,5R,8R,10R,11R,12S,13S,14R)-11-{[(2S,3R,4S,6R)-4-(dimethylamino)-3-hydroxy-6-methyloxan-2-yl]oxy}-2-ethyl-3,4,10-trihydroxy-13-{[(2R,4R,5S,6S)-5-hydroxy-4-methoxy-4,6-dimethyloxan-2-yl]oxy}-3,5,8,10,12,14-hexamethyl-15-oxo-1-oxa-6-azacyclopentadecan-6-yl]-6-oxohexyl}triphenylphosphonium hexafluorophosphate(V)]",118.9
7,"CC[C@H]1OC(=O)[C@H](C)[C@@H](O[C@H]2C[C@@](C)(OC)[C@@H](O)[C@H](C)O2)[C@H](C)[C@@H](O[C@@H]2O[C@H](C)C[C@H](N(C)C)[C@H]2O)[C@](C)(O)C[C@@H](C)CN(CCCCCCCC[P+](c2ccccc2)(c2ccccc2)c2ccccc2)[C@H](C)[C@@H](O)[C@]1(C)O.[I-] [Example 7, {8-[(2R,3S,4R,5R,8R,10R,11R,12S,13S,14R)-11-{[(2S,3R,4S,6R)-4-(dimethylamino)-3-hydroxy-6-methyloxan-2-yl]oxy}-2-ethyl-3,4,10-trihydroxy-13-{[(2R,4R,5S,6S)-5-hydroxy-4-methoxy-4,6-dimethyloxan-2-yl]oxy}-3,5,8,10,12,14-hexamethyl-15-oxo-1-oxa-6-azacyclopentadecan-6-yl]octyl}triphenylphosphonium iodide]",23.3
8,"CC[C@H]1OC(=O)[C@H](C)[C@@H](O[C@H]2C[C@@](C)(OC)[C@@H](O)[C@H](C)O2)[C@H](C)[C@@H](O[C@@H]2O[C@H](C)C[C@H](N(C)C)[C@H]2O)[C@](C)(O)C[C@@H](C)CN(CCCCCC[P+](c2ccccc2)(c2ccccc2)c2ccccc2)[C@H](C)[C@@H](O)[C@]1(C)O [Example 8, {6-[(2R,3S,4R,5R,8R,10R,11R,12S,13S,14R)-11-{[(2S,3R,4S,6R)-4-(dimethylamino)-3-hydroxy-6-methyloxan-2-yl]oxy}-2-ethyl-3,4,10-trihydroxy-13-{[(2R,4R,5S,6S)-5-hydroxy-4-methoxy-4,6-dimethyloxan-2-yl]oxy}-3,5,8,10,12,14-hexamethyl-15-oxo-1-oxa-6-azacyclopentadecan-6-yl]hexyl}triphenylphosphonium iodide]",109.9
9,"CC[C@H]1OC(=O)[C@H](C)[C@@H](O[C@H]2C[C@@](C)(OC)[C@@H](O)[C@H](C)O2)[C@H](C)[C@@H](O[C@@H]2O[C@H](C)C[C@H](N(C)C)[C@H]2O)[C@](C)(O)C[C@@H](C)CN(C(=O)CCCCCCC[P+](c2ccccc2)(c2ccccc2)c2ccccc2)[C@H](C)[C@@H](O)[C@]1(C)O [Example 9, {8-[(2R,3S,4R,5R,8R,10R,11R,12S,13S,14R)-11-{[(2S,3R,4S,6R)-4-(dimethylamino)-3-hydroxy-6-methyloxan-2-yl]oxy}-2-ethyl-3,4,10-trihydroxy-13-{[(2R,4R,5S,6S)-5-hydroxy-4-methoxy-4,6-dimethyloxan-2-yl]oxy}-3,5,8,10,12,14-hexamethyl-15-oxo-1-oxa-6-azacyclopentadecan-6-yl]-8-oxooctyl}triphenylphosphonium hexafluorophosphate(V)]",105.3
10,"CC[C@H]1OC(=O)[C@H](C)[C@@H](O)[C@H](C)[C@@H](O[C@@H]2O[C@H](C)C[C@H](N(C)C)[C@H]2O)[C@](C)(O)C[C@@H](C)CN(C(=O)CCCCCCCCCCC[P+](c2ccccc2)(c2ccccc2)c2ccccc2)[C@H](C)[C@@H](O)[C@]1(C)O [Example 12, {12-[(2R,3S,4R,5R,8R,10R,11R,12S,13S,14R)-11-{[(2S,3R,4S,6R)-4-(dimethylamino)-3-hydroxy-6-methyloxan-2-yl]oxy}-2-ethyl-3,4,10,13-tetrahydroxy-3,5,8,10,12,14-hexamethyl-15-oxo-1-oxa-6-azacyclopentadecan-6-yl]-12-oxododecyl}triphenylphosphonium hexafluorophosphate(V)]",6.6
11,"CC[C@H]1OC(=O)[C@H](C)[C@@H](O)[C@H](C)[C@@H](O)[C@](C)(O)C[C@@H](C)CN(C(=O)CCCCCCCCCCC[PH](c2ccccc2)(c2ccccc2)c2ccccc2)[C@H](C)[C@@H](O)[C@]1(C)O [Example 13, {12-[(2R,3S,4R,5R,8R,10R,11R,12S,13S,14R)-2-ethyl-3,4,10,11,13-pentahydroxy-3,5,8,10,12,14-hexamethyl-15-oxo-1-oxa-6-azacyclopentadecan-6-yl]-12-oxododecyl}triphenylphosphonium hexafluorophosphate(V)]",11

# — patent US11560395B2, “Azithromycin derivatives containing a phosphonium ion as anticancer agents” (Rising Tide Foundation, priority 2017, dated 2023)
